Several values for one entry are separate records, joined by “and”; a condition that tells them apart may be missing. Identical values can stand only once. Like-named read-outs stand apart in the source and are kept apart here.
Experiments:
Test in all cases: greenhouse post-emergence herbicidal test
SETVI = assay type: in vivo, Setaria viridis; conditions: a.i. g/ha: I.1 20.8, B.192 62.5, 20 days after treatment
Method: The culture containers used were plastic pots containing medium loamy sand with approximately 4.6% of humus and 69.9% sand as substrate. The seeds of the test plants were sown separately for each species.
For the post-emergence treatment, the test plants were grown to a plant height of from 1 to 15 cm, depending on the plant habit, and only then treated with the active compounds which had been suspended or emulsified in water. To this end, the test plants were either sown directly, and grown in the same containers, or they were first grown separately as seedlings and transplanted into the test containers a few days prior to treatment.
Depending on the species, the plants were kept at 10-25° C. and 20-35° C., respectively.
The test period extended over 1 to 3 weeks. During this time, the plants were tended and their response to the individual treatments was evaluated 20 days after treatment except mentioned otherwise.
Evaluation was carried out using a scale from 0 to 100. […]
In the examples below, using the method of S. R. Colby (1967) “Calculating synergistic and antagonistic responses of herbicide combinations”, Weeds 15, p. 22 ff., the value E, which is expected if the activity of the individual active compounds is only additive, was calculated. […]

AMBEL = assay type: in vivo, Ambrosia artemisiifolia; design: key: rating on a scale from 0 to 100
How it was run: (§1)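 Once 1 to 15 cm tall, potted seedlings in loamy sand received the active compounds emulsified or suspended in water. After 20 days, damage versus untreated growth was graded on a 0–100 scale, and synergy judged against Colby's additive value E.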

ALOMY = assay type: in vivo, Alopecurus myosuroides; design: key to herbicidal activity against ALOMY found: rating on a scale from 0 to 100; conditions: post emergence
How it was run: as §1

ECHCG = assay type: in vivo, Echinochloa crus-galli; design: key to herbicidal activity against ECHCG found / herbicidal activity against ECHCH found: scale 0 to 100; conditions: post emergence
How it was run: as §1

[1] = applied alone at 31.25 g/ha a.i.
[2] = a.i. g/ha: I.1 20.8, B.67 62.5, 20 days after treatment
[3] = a.i. g/ha: I.1 62.5, B.67 62.5, 20 days after treatment
[4] = application rate a.i.: I.1 250 g/ha, B.193 15 g/ha, alone or as mixture (composition 1.193)

O=C(O)c1cc(C2CC2)nc2onc(C3CC3)c12 [I.1]
herbicidal activity against SETVI found (SETVI): 25%
herbicidal activity against AMBEL found (AMBEL; 31.25 g/ha a.i.): 85
herbicidal activity against AMBEL found (AMBEL; I.1 alone 125 g/ha a.i.): 65
herbicidal activity against AMBEL found (AMBEL; a.i. g/ha: I.1 20.8, B.192 62.5, 20 days after treatment): 30%
herbicidal activity against AMBEL found (AMBEL; application rate a.i.: I.1 31.25 g/ha, B.100 (isoxaflutole) 12.5 g/ha, alone or as mixture (composition 1.100)): 90
herbicidal activity against AMBEL found (AMBEL; application rate a.i.: I.1 31.25 g/ha, B.139 (pyroxasulfone) 12.5 g/ha, alone or as mixture (composition 1.139)): 65
herbicidal activity against AMBEL found (AMBEL; application rate a.i.: I.1 31.25 g/ha, B.84 (paraquat-dichloride) 17.5 g/ha, alone or as mixture (composition 1.84)): 65
herbicidal activity against AMBEL found (AMBEL; application rate a.i.: I.1 62.5 g/ha, B.100 (isoxaflutole) 12.5 g/ha, alone or as mixture (composition 1.100)): 90
herbicidal activity against AMBEL found (AMBEL; [1]): 75
herbicidal activity against AMBEL found (AMBEL; single active, 15.62 g/ha a.i.): 0
herbicidal activity against AMBEL found (AMBEL; single active, 15.625 g/ha a.i.): 0
pest or weed control at 31.25 g/ha (ALOMY; Alopecurus myosuroides, post-emergence, 480 h, I.1 alone 31.25 g/ha a.i., read-out: herbicidal activity against ALOMY found): 0%
pest or weed control at 31.25 g/ha (ALOMY; Alopecurus myosuroides, post-emergence, 480 h, I.1 31.25 g/ha a.i., read-out: herbicidal activity against ALOMY found): 0%
pest or weed control at 62.5 g/ha (ALOMY; Alopecurus myosuroides, post-emergence, 480 h, I.1 62.5 g/ha a.i., read-out: herbicidal activity against ALOMY found): 0%
pest or weed control at 125 g/ha (ALOMY; Alopecurus myosuroides, post-emergence, 480 h, I.1 125 g/ha a.i., read-out: herbicidal activity against ALOMY found): 25%
pest or weed control at 15.62 g/ha (ALOMY; Alopecurus myosuroides, post-emergence, 480 h, single active, 15.62 g/ha a.i., read-out: herbicidal activity against ALOMY found): 0%
pest or weed control at 31.25 g/ha (ALOMY; Alopecurus myosuroides, post-emergence, 480 h, single active, 31.25 g/ha a.i., read-out: herbicidal activity against ALOMY found): 0%
pest or weed control at 62.5 g/ha (ALOMY; Alopecurus myosuroides, post-emergence, 480 h, single active, 62.5 g/ha a.i., read-out: herbicidal activity against ALOMY found): 0%
pest or weed control at 125 g/ha (ALOMY; Alopecurus myosuroides, post-emergence, 480 h, single active, 125 g/ha a.i., read-out: herbicidal activity against ALOMY found): 25%
herbicidal activity against ALOMY found (ALOMY; I.1 31.25 g/ha, B.95 1 g/ha a.i.): 0
herbicidal activity against ALOMY found (ALOMY; I.1 62.5 g/ha, B.88 1 g/ha a.i.): 0
herbicidal activity against ALOMY found (ALOMY; I.1 62.5 g/ha, B.88 2 g/ha a.i.): 0
herbicidal activity against ALOMY found (ALOMY; I.1 62.5 g/ha, B.89 12.5 g/ha a.i.): 0
herbicidal activity against ALOMY found (ALOMY; I.1 62.5 g/ha, B.95 1 g/ha a.i.): 0
herbicidal activity against ALOMY found (ALOMY; a.i. g/ha: I.1 6.9, B.67 62.5, 20 days after treatment): 0%
herbicidal activity against ALOMY found (ALOMY; [2]): 0%
herbicidal activity against ALOMY found (ALOMY; [3]): 0%
herbicidal activity against ALOMY found (ALOMY; [4]): 45
herbicidal activity against ALOMY found (ALOMY; [1]): 0
herbicidal activity against ALOMY found (ALOMY; applied alone at 125 g/ha a.i.): 20 and 25
herbicidal activity against ALOMY found (ALOMY; g/ha a.i.: I.1 31.25, B.52 2.5, mixture 31.25+2.5): 25
herbicidal activity against ALOMY found (ALOMY; g/ha a.i.: I.1 62.5, B.20 4, mixture 62.5+4): 25
herbicidal activity against ALOMY found (ALOMY; g/ha a.i.: I.1 62.5, B.52 2.5, mixture 62.5+2.5): 25
herbicidal activity against ALOMY found (ALOMY; g/ha a.i.: I.1 125, B.20 2, mixture 125+2): 30
herbicidal activity against ALOMY found (ALOMY; g/ha a.i.: I.1 125, B.20 4, mixture 125+4): 30
herbicidal activity against ALOMY found (ALOMY; g/ha a.i.: I.1 125, B.24 1, mixture 125+1): 30
herbicidal activity against ALOMY found (ALOMY; g/ha a.i.: I.1 125, B.24 2, mixture 125+2): 30
herbicidal activity against ALOMY found (ALOMY; g/ha a.i.: I.1 125, B.52 2.5, mixture 125+2.5): 30
herbicidal activity against ALOMY found (ALOMY; g/ha a.i.: I.1 125, B.63 0.5, mixture 125+0.5): 30
pest or weed control at 31.25 g/ha (ECHCG; Echinochloa crus-galli, post-emergence, 480 h, I.1 alone 31.25 g/ha a.i., read-out: herbicidal activity against ECHCG found): 0%
pest or weed control at 62.5 g/ha (ECHCG; Echinochloa crus-galli, post-emergence, 480 h, I.1 alone 62.5 g/ha a.i., read-out: herbicidal activity against ECHCG found): 45%
pest or weed control at 31.25 g/ha (ECHCG; Echinochloa crus-galli, post-emergence, 480 h, 31.25 g/ha a.i., read-out: herbicidal activity against ECHCG found): 0%
pest or weed control at 31.25 g/ha (ECHCG; Echinochloa crus-galli, post-emergence, 480 h, I.1 31.25 g/ha a.i., read-out: herbicidal activity against ECHCG found): 70%
pest or weed control at 15.62 g/ha (ECHCG; Echinochloa crus-galli, post-emergence, 480 h, single active, 15.62 g/ha a.i., read-out: herbicidal activity against ECHCG found): 0%
pest or weed control at 31.25 g/ha (ECHCG; Echinochloa crus-galli, post-emergence, 480 h, single active, 31.25 g/ha a.i., read-out: herbicidal activity against ECHCG found): 10%
herbicidal activity against ECHCG found (ECHCG; I.1 15.62 g/ha, B.167 125 g/ha a.i.): 0
herbicidal activity against ECHCG found (ECHCG; I.1 15.62 g/ha, B.95 1 g/ha a.i.): 10
herbicidal activity against ECHCG found (ECHCG; I.1 31.25 g/ha, B.103 7.5 g/ha a.i.): 10
herbicidal activity against ECHCG found (ECHCG; I.1 31.25 g/ha, B.167 125 g/ha a.i.): 10
herbicidal activity against ECHCG found (ECHCG; I.1 62.5 g/ha, B.95 2 g/ha a.i.): 55
herbicidal activity against ECHCH found (ECHCG; I.1 125 g/ha a.i.): 85
herbicidal activity against ECHCG found (ECHCG; [2]): 30%
herbicidal activity against ECHCG found (ECHCG; [3]): 65%
herbicidal activity against ECHCG found (ECHCG; a.i. g/ha: I.1 62.5, B.79 25, 20 days after treatment): 65%
herbicidal activity against ECHCG found (ECHCG; application rate a.i.: I.1 31.25 g/ha, B.40 (imazethapyr) 7.5 g/ha, alone or as mixture (composition 1.40)): 0
herbicidal activity against ECHCG found (ECHCG; [4]): 95
